Measured values taken from ChEMBL document CHEMBL3991601, “The target landscape of clinical kinase drugs” (Science, 2017).
pKd: −log10 of the molar value. Active and inactive are the calls of the source. On the calls: in the data inactive means no Kd found up to 30 µM.

How the values were obtained:
[1] = target: Serine/threonine-protein kinase Nek7 (Homo sapiens, UniProt Q8TDX7)
[2] = target: T1, Protein kinase C zeta type (Homo sapiens, UniProt Q05513)
T1 sequence (Q05513 whole entry): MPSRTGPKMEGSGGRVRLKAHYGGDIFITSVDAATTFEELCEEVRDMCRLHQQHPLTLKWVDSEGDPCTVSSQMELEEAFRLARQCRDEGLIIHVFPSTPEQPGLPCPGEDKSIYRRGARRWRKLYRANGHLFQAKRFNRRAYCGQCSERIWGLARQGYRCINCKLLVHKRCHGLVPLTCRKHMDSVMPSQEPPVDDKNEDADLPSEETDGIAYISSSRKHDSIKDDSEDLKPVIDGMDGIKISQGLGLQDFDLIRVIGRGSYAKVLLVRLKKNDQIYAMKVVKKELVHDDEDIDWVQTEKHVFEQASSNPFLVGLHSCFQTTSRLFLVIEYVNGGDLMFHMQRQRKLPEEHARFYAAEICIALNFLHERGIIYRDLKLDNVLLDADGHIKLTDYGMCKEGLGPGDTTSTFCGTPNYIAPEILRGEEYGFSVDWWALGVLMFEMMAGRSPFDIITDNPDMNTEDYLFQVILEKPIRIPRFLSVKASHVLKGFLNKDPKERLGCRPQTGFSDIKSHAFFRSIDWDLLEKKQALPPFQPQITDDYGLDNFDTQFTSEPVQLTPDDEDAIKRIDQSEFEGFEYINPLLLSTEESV

[3] = target: T2, Cyclin-dependent kinase-like 5 (Homo sapiens, UniProt O76039)
T2 sequence (O76039 whole entry): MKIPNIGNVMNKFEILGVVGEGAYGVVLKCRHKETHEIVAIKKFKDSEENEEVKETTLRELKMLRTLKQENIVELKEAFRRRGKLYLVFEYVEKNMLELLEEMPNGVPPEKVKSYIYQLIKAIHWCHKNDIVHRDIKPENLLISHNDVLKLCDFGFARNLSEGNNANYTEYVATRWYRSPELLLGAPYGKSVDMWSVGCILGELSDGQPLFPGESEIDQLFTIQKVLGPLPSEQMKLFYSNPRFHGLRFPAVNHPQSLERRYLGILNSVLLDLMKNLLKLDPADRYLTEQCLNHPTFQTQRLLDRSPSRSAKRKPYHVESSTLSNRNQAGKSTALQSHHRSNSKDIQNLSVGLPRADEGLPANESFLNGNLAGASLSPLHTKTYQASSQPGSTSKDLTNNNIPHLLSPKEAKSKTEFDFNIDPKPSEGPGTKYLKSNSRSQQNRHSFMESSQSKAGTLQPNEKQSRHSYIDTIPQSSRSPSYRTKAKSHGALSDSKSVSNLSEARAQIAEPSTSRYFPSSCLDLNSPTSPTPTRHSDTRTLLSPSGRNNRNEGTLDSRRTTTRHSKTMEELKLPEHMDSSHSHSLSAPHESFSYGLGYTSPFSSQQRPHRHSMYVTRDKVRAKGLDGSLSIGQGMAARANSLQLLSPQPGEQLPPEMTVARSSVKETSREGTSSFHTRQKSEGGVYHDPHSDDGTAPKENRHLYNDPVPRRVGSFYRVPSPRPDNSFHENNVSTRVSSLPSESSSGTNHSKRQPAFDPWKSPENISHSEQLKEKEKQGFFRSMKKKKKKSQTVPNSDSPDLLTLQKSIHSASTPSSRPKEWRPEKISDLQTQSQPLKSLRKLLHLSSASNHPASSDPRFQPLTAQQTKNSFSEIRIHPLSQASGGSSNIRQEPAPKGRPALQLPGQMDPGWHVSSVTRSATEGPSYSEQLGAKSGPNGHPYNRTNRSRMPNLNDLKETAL

[4] = target: Choline-phosphate cytidylyltransferase A (Homo sapiens, UniProt P49585)
Sequence of Choline-phosphate cytidylyltransferase A (P49585 whole entry): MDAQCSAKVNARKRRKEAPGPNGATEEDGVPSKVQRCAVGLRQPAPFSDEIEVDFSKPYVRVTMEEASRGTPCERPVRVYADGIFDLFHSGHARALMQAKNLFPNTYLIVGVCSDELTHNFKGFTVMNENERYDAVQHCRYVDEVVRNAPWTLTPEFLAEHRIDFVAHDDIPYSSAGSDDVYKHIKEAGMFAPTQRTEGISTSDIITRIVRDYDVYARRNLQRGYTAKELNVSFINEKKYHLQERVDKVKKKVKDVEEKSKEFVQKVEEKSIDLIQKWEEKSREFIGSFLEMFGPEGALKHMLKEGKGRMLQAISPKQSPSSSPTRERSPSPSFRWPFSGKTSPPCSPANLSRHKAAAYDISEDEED

[5] = target: T3, Electron transfer flavoprotein subunit beta (Homo sapiens, UniProt P38117)
T3 sequence (P38117 whole entry): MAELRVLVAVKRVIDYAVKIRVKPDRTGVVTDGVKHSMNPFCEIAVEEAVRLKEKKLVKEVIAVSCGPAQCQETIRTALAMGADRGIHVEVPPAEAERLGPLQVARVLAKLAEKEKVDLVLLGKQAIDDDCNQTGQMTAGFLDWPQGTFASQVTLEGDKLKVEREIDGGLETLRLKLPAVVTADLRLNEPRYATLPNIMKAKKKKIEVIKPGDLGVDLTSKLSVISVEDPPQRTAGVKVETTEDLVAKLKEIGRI

[6] = target: Serine/threonine-protein kinase N3 (Homo sapiens, UniProt Q6P5Z2)
Sequence of Serine/threonine-protein kinase N3 (Q6P5Z2 whole entry): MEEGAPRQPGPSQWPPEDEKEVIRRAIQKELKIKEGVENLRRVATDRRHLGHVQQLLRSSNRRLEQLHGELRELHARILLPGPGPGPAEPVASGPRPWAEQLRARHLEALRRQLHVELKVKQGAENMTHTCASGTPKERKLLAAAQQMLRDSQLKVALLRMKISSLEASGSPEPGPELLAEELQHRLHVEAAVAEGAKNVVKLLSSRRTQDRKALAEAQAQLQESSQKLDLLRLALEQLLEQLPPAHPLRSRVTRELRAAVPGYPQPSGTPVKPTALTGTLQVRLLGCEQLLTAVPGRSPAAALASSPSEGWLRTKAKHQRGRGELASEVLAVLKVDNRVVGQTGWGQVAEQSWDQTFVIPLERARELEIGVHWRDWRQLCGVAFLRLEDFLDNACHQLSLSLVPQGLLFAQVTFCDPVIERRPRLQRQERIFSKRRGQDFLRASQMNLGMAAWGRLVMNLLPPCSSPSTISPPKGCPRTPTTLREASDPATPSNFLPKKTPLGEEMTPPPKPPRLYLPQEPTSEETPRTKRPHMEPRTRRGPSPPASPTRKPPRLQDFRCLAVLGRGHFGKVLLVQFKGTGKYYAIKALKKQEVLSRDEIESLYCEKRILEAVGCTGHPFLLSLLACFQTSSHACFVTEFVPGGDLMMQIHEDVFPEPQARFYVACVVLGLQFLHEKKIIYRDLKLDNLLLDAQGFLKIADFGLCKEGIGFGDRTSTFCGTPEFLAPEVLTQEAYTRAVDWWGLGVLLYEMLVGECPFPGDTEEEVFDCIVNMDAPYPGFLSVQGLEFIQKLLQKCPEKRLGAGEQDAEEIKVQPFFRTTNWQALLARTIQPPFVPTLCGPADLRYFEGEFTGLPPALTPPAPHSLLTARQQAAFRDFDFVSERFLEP

UMP-CMP kinase = target: T4, UMP-CMP kinase (Homo sapiens, UniProt P30085)
T4 sequence (P30085 whole entry): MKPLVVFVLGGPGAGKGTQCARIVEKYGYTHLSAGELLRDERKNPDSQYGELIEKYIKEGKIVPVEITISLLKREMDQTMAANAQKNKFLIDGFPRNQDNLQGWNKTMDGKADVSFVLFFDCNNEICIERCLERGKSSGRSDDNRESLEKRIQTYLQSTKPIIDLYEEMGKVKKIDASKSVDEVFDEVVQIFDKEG

[7] = target: Cell division cycle 7-related protein kinase (Homo sapiens, UniProt O00311)
Sequence of Cell division cycle 7-related protein kinase (O00311 whole entry): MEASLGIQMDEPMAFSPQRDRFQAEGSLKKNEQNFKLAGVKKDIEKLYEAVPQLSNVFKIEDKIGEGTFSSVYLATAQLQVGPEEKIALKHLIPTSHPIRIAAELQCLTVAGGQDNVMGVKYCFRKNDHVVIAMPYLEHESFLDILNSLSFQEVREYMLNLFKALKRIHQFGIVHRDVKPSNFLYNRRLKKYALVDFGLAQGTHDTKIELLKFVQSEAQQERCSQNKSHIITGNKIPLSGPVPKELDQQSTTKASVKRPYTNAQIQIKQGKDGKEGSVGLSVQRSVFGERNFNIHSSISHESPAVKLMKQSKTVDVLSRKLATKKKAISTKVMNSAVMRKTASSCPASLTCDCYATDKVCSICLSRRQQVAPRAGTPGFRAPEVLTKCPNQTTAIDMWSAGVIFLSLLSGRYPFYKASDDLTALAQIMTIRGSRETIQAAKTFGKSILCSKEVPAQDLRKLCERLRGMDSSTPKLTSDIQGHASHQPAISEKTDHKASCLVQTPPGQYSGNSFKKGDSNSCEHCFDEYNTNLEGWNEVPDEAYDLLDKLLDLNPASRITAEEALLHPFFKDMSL

[8] = target: Serine/threonine-protein kinase PLK1 (Homo sapiens, UniProt P53350)
Sequence of Serine/threonine-protein kinase PLK1 (P53350 whole entry): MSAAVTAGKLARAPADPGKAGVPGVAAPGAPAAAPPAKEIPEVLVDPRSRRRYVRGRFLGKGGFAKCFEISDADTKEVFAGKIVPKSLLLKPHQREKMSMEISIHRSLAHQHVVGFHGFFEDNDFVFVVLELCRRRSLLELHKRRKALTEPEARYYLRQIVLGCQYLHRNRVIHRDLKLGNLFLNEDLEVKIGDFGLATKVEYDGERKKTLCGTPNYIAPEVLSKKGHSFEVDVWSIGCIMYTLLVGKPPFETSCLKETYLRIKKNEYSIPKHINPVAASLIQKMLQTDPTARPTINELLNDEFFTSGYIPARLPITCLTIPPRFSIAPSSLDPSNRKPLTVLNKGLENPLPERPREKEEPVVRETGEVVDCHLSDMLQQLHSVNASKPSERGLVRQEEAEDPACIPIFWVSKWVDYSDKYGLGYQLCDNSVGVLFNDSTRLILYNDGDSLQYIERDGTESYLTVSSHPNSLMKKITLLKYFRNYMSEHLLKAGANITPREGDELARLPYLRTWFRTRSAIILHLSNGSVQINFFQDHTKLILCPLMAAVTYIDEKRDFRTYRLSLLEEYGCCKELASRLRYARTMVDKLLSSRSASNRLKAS

Sequence of Serine/threonine-protein kinase Nek7 (Q8TDX7 whole entry): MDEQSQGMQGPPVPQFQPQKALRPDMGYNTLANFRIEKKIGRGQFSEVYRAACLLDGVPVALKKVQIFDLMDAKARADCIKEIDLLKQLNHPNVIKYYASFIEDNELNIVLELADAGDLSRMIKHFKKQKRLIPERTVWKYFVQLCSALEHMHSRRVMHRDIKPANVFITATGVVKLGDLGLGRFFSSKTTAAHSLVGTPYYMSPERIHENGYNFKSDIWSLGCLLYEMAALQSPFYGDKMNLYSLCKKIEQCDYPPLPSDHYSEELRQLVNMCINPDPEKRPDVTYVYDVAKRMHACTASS

Kd [1] | Kd [2] | Kd [3] | Kd [4] | Kd [5] | Kd [6] | Kd (UMP-CMP kinase) | Kd [7] | Kd [8] | pKd [7] | SMILES
> 30 µM (inactive) | > 30 µM (inactive) | > 30 µM (inactive) | – | – | – | – | – | – | – | C[C@H]1CNCCCN1S(=O)(=O)c1cccc2cncc(F)c12
> 30 µM (inactive) | > 30 µM (inactive) | 0.02 µM (active) | – | – | – | – | 3.99 µM (active) | – | – | CCNC(=O)C#Cc1ccc2c(c1)NC(=O)/C2=C(\Nc1ccc(CN(C)C)cc1)c1ccccc1
> 30 µM (inactive) | – | > 30 µM (inactive) | > 30 µM (inactive) | > 30 µM (inactive) | > 30 µM (inactive) | > 30 µM (inactive) | – | > 30 µM (inactive) | 6.29 | O=C(Nc1c[nH]nc1-c1nc2cc(CN3CCOCC3)ccc2[nH]1)NC1CC1 [AT-9283]
– | > 30 µM (inactive) | – | > 30 µM (inactive) | > 30 µM (inactive) | > 30 µM (inactive) | > 30 µM (inactive) | > 30 µM (inactive) | – | – | CNC(=O)c1ccccc1Sc1ccc2c(/C=C/c3ccccn3)n[nH]c2c1 [AXITINIB]
> 30 µM (inactive) | – | > 30 µM (inactive) | > 30 µM (inactive) | – | > 30 µM (inactive) | > 30 µM (inactive) | – | > 30 µM (inactive) | – | Cc1cc(C(=O)NOCCO)c(Nc2ccc(I)cc2F)n(C)c1=O [AZD-8330]
> 30 µM (inactive) | – | > 30 µM (inactive) | > 30 µM (inactive) | – | > 30 µM (inactive) | – | – | – | – | CCn1cc(-c2ccnc3[nH]c(-c4cccc(CN(C)C)c4)cc23)c(-c2ccc(NC(=O)N(C)C)cc2)n1 [GSK-1070916]
> 30 µM (inactive) | > 30 µM (inactive) | > 30 µM (inactive) | > 30 µM (inactive) | – | > 30 µM (inactive) | – | > 30 µM (inactive) | > 30 µM (inactive) | – | COc1ccc(S(=O)(=O)N(C(C)=O)c2ccccc2/C=C/c2cc[n+]([O-])cc2)cc1 [HMN-214]
> 30 µM (inactive) | – | > 30 µM (inactive) | > 30 µM (inactive) | > 30 µM (inactive) | > 30 µM (inactive) | > 30 µM (inactive) | > 30 µM (inactive) | > 30 µM (inactive) | – | CNC(=O)c1cccc2cc(Oc3ccnc4cc(OCC5(N)CC5)c(OC)cc34)ccc12 [LUCITANIB]
> 30 µM (inactive) | > 30 µM (inactive) | > 30 µM (inactive) | > 30 µM (inactive) | – | > 30 µM (inactive) | – | > 30 µM (inactive) | – | – | CNC(=O)c1nn(C)c2c1C(C)(C)Cc1cnc(Nc3ccc(N4CCN(C)CC4)cc3)nc1-2 [MILCICLIB]
> 30 µM (inactive) | – | > 30 µM (inactive) | > 30 µM (inactive) | > 30 µM (inactive) | > 30 µM (inactive) | – | – | – | – | Cc1[nH]c(/C=C2\C(=O)Nc3ccccc32)c(C)c1CCC(=O)O [ORANTINIB]
– | > 30 µM (inactive) | 1.93 µM (active) | – | > 30 µM (inactive) | > 30 µM (inactive) | > 30 µM (inactive) | > 30 µM (inactive) | > 30 µM (inactive) | – | Cc1nc(Nc2n[nH]c3c2CN(C(=O)N[C@H](CN(C)C)c2ccccc2)C3(C)C)c2sccc2n1 [PF-03758309]
– | – | – | > 30 µM (inactive) | – | – | – | – | – | – | CC(=O)NCC(=O)N1[C@@H]2CC[C@H]1c1ccc(Nc3ncc(C(F)(F)F)c(NC4CCC4)n3)cc12 [PF-03814735]
> 30 µM (inactive) | > 30 µM (inactive) | > 30 µM (inactive) | – | > 30 µM (inactive) | > 30 µM (inactive) | – | > 30 µM (inactive) | – | – | CO[C@H]1C[C@@H]2CC[C@@H](C)[C@@](O)(O2)C(=O)C(=O)N2CCCC[C@H]2C(=O)O[C@H]([C@H](C)C[C@@H]2CC[C@@H](OP(C)(C)=O)[C@H](OC)C2)CC(=O)[C@H](C)/C=C(\C)[C@@H](O)[C@@H](OC)C(=O)[C@H](C)C[C@H](C)/C=C/C=C/C=C/1C [RIDAFOROLIMUS]
> 30 µM (inactive) | > 30 µM (inactive) | > 30 µM (inactive) | – | > 30 µM (inactive) | – | > 30 µM (inactive) | > 30 µM (inactive) | – | – | N#CC1(c2ccc(NC(=O)c3cccnc3NCc3ccncc3)cc2)CCCC1 [RIVOCERANIB]
> 30 µM (inactive) | > 30 µM (inactive) | > 30 µM (inactive) | – | > 30 µM (inactive) | – | > 30 µM (inactive) | – | > 30 µM (inactive) | – | O=c1[nH]ccc2cc(OC3CCNCC3)ccc12 [SAR-407899 FREE BASE]
> 30 µM (inactive) | > 30 µM (inactive) | > 30 µM (inactive) | – | > 30 µM (inactive) | – | > 30 µM (inactive) | > 30 µM (inactive) | – | – | Cn1cc(-c2cnn3c(N)c(Br)c([C@@H]4CCCNC4)nc23)cn1 [SCH-900776]
– | > 30 µM (inactive) | – | – | – | – | – | > 30 µM (inactive) | – | – | CCS(=O)(=O)c1cccc(-c2cc(C(=O)NC3CCN(C)CC3)c(C)c3[nH]c4ncc(C)cc4c23)c1 [TAK-901]
– | > 30 µM (inactive) | > 30 µM (inactive) | > 30 µM (inactive) | – | > 30 µM (inactive) | – | > 30 µM (inactive) | – | – | C[C@@H](NC(=O)c1ncnc(N)c1Cl)c1ncc(C(=O)Nc2cc(C(F)(F)F)c(Cl)cn2)s1 [TOVORAFENIB]
> 30 µM (inactive) | – | > 30 µM (inactive) | > 30 µM (inactive) | – | – | – | – | > 30 µM (inactive) | – | CC(C)c1cc(CNc2nc(Nc3cc(C4CC4)[nH]n3)cc(N3CCN(C)CC3)n2)on1 [XL-228]
> 30 µM (inactive) | > 30 µM (inactive) | > 30 µM (inactive) | – | – | – | – | – | – | – | CN1C/C=C/CCOc2cccc(c2)-c2ccnc(n2)Nc2cccc(c2)C1 [ZOTIRACICLIB]

SMILES | Kd [1] | Kd [2] | Kd [3] | Kd [4] | Kd [5] | Kd [6] | Kd (UMP-CMP kinase) | Kd [7] | Kd [8] | pKd [7]
CC(=O)c1cnc2ccc(-c3cc(Cl)c(O)c(Cl)c3)nc2c1N[C@H]1CC[C@H](CN(C)C)CC1 | > 30 µM (inactive) | – | – | > 30 µM (inactive) | > 30 µM (inactive) | > 30 µM (inactive) | > 30 µM (inactive) | – | – | –
O=C(Nc1nc2cccc(-c3ccc(CN4CCS(=O)(=O)CC4)cc3)n2n1)C1CC1 [FILGOTINIB] | > 30 µM (inactive) | – | – | > 30 µM (inactive) | > 30 µM (inactive) | – | > 30 µM (inactive) | – | > 30 µM (inactive) | –
O=C(Nc1cc(C(F)(F)F)cc(C(F)(F)F)c1)c1cc(Cl)ccc1O [IMD-0354] | > 30 µM (inactive) | – | > 30 µM (inactive) | > 30 µM (inactive) | – | – | – | > 30 µM (inactive) | – | –
CCCCCCCCCCCCCCCCCCOP(=O)([O-])OC1CC[N+](C)(C)CC1 [PERIFOSINE] | – | – | – | > 30 µM (inactive) | > 30 µM (inactive) | – | > 30 µM (inactive) | – | – | –
CN1CCN(CCOc2cc(OC3CCOCC3)c3c(Nc4c(Cl)ccc5c4OCO5)ncnc3c2)CC1 [SARACATINIB] | > 30 µM (inactive) | > 30 µM (inactive) | – | – | – | > 30 µM (inactive) | – | – | > 30 µM (inactive) | –
